# Assay results published in patent US10287617B2, “Methods for in vitro—in vivo efficacy determination” (COLORADO STATE UNIVERSITY RESEARCH FOUNDATION, priority 2014, dated 2019).
# “Also recorded” adds a separate entry of the source. Like-named read-outs stand apart in the source and are kept apart here. Marks after values point to notes of the source that are not given here.
# Assays:
# M. tuberculosis NHN382 = assay: microbe, parasite or virus in culture; format: cell-based, Mycobacterium tuberculosis
# [1] = Plasma stability in mouse plasma; settings: percent remaining
# Description: (§3) Plasma was spiked with the compound in order to obtain a final drug concentration of 100 ng/mL (expressed as non-salified compound). The spiked plasma (dedicated to C1h and C4h) was then incubated at 37° C. for 1 h and 4 h. Plasma samples were analyzed by LC-MS/MS following protein precipitation. The limit of quantification for compounds was 10 ng/mL.
# (§4) 10 μL of the sample was injected to Luna Phenomenex C8 (50 mm×2.0 mm, 3 μm). Solvent A: ammonium acetate (0.15 g)/formic acid (2 mL)/HPLC water up to 1000 mL. Solvent B: ammonium acetate (0.15 g)/formic acid (2 mL)/Methanol (200 mL)/Acetonitrile up to 1000 mL, flow rate of 0.3 mL/min, t=0-6 min. gradient of 10-90% of B. Retention time for SB-P17G-C2 was 1.85 min and for SB-P17G-A20 was 3.3 min. MS/MS condition used for detection: Finnigan TSQ Quantum disco instrument, Excalibur version 2.0 acquisition system, ESI positive ion ionization mode. The mean percent of difference between C1h or C4h and C0 concentrations was calculated. M % D (%)=100×[(C1h or C4h)−C0]/C0
# (§5) The compounds were considered as stable if the mean percent of difference between C4h and C0 concentrations was less than 20%.
# [2] = Oxidative metabolic lability in mouse liver microsomes; settings: for Liver Microsome Lability Mouse: 5 μM, 1 mg/mL microsomal protein, 20 min
# Description: (§6) Microsomal fractions were prepared in the Drug Disposition Domain at DSAR Montpellier (371 rue du Pr. J. Blayac, 34184 Montpellier Cedex 04, France). […] The flavin-containing monooxygenases (FMO)-dependent reactions were run in the presence of bovine serum albumin (BSA, 0.1%) for the duration of 0 and 20 min (with or without microsomal proteins and/or cofactors). […] Following protein precipitation with acetonitrile and their removal by centrifugation, supernatant fluids were analyzed by LC/MS-MS.
# (§7) Thermo Finnigan TSQ Quantum Ultra instrument, ESI positive ion ionization mode. Each compound is studied in duplicates. Results are expressed in percentage of lability (or total metabolism). Total metabolism=[1−(UC_Peak Area+Cofactor at T20)/(UC_Peak Area Reference at T0)]×100
# (§8) The reactions were prepared as described and were run in the presence of bovine scrum albumin (BSA, 0.1%) for the duration of 0 and 20 min (with or without microsomal proteins and/or cofactors). Enzyme activity was stopped, the protein was precipitated and removed by centrifugation. The supernatant fluids were analyzed by LC/MS-MS. […] A Thermo Finnigan TSQ Quantum Ultra instrument, ESI positive ion ionization mode was used for MS/MS. Each compound was studied in duplicates. Results are expressed in percentage of lability (or total metabolism) using the following formula: Total metabolism=[1−(UC_Peak Area+Cofactor at T20)/(UC_Peak Area Reference at T0)]×100 where UC=Unchanged Compound; “Reference” sample was NADPH for liver microsomal preparation.
# M. tuberculosis W210 = assay: microbe, parasite or virus in culture; format: cell-based, Mycobacterium tuberculosis
# [3] = test system: Mycobacteria tuberculosis; assay: MIC and drug response curve type (Tables A and B); format: cell-based, Mycobacterium tuberculosis; settings: Table A; for Curve: drug response curve type; for MIC: in µg/mL
# Description: A drug concentration response curve can be generated by graphing the log10 drug concentrations (μg/mL) against the difference in growth between the drug-treated wells and control wells. See FIG. 3C, and FIG. 5 (entries for SB-P23D8 and SB-P26D9). A NREBA is indicative of bacteriostatic activity above the MIC.
# (§1) Further analysis using the methods described herein was performed on the compounds found in Tables A and B (bold font compounds are shown in FIG. 11) resulting in the data found therein.
# MIC values were determined for the benzimidazoles using a modified 96-well microplate Alamar Blue (resazurin) assay (MABA) (see Kumar et al., J. Med. Chem. 2011; 54:374-381; Collins and Franzblau, Antimicrob. Agents Chemother. 1997; 41:1004-1009). Dose response curves were generated from the MABA assay for compounds by graphing the log10 drug concentrations against the difference in growth between the drug-treated wells and control wells using GraphPad Prism Version 5.0d for Mac OS X (GraphPad Software, San Diego Calif., USA, www.graphpad.com). For time dose studies, bacterial growth in the presence of compound was monitored by the O.D. 600 nm. […] The values were plotted against time using GraphPad Prism Version 5.0d for Mac OS X (GraphPad Software, San Diego Calif., USA, www.graphpad.com).
# M. tuberculosis TN587 = assay: microbe, parasite or virus in culture; format: cell-based, Mycobacterium tuberculosis
# [4] = Oxidative metabolic lability in human liver microsomes; settings: for Liver Microsome Lability Human: 5 μM, 1 mg/mL microsomal protein, 20 min
# Description: as §6, §7, §8
# M. tuberculosis = assay: Benzimidazoles activity tested in animals (animal models of infection, Table A); format: in vivo, mouse; settings: Table A
# Description: as §1
# Compound efficacy was assessed in two murine models of infection based on the short term model described previously (Lenaerts et al., Antimicrob. Agents Chemother. 2003; 47:783-785). All aerosol infections were performed using a Middlebrook aerosol generation devise (Glas-Col, Terre Haute, Ind.).
# Mtb FtsZ = Mtb FtsZ (Mycobacterium tuberculosis, UniProt P9WN95); assay: FtsZ polymerization by transmission electron microscopy; format: biochemical; settings: FtsZ 5 μM, GTP 25 μM, compound 40 μM and 80 μM
# [5] = test system: M. tuberculosis clinical isolates; assay: microbe, parasite or virus in culture; format: cell-based, Mycobacterium tuberculosis
# M. tuberculosis H37Rv [6] = assay: MIC / dose response by modified microplate Alamar Blue assay (MABA); format: cell-based, Mycobacterium tuberculosis
# M. tuberculosis H37Rv [7] = assay: Growth inhibition / time dose curves (OD600 and CFU); format: cell-based, Mycobacterium tuberculosis; settings: for reduction in number of viable bacteria: 1×MIC
# M. tuberculosis NHN20 = assay: microbe, parasite or virus in culture; format: cell-based, Mycobacterium tuberculosis
# M. tuberculosis Erdman = format: in vivo; settings: for Δ Lungs (difference between means of Test and Control Groups) / Δ Spleen (difference between means of Test and Control Groups) / Log10CFU Lungs / Log10CFU Spleen: 50 mg/kg b.i.d. (Inh q.d.); for Log10CFU Lungs / Log10CFU Spleen: day 15
# [8] = 100 ng/mL
# Description: as §3, §4, §5
# [9] = Cytotoxicity assay (resazurin, 72 h); format: cell-based; settings: African green monkey, Vero cells; 72 h
# Description: (§2) The cytotoxicity assay was performed as described previously^16. Briefly compounds were serially diluted in 96 well plates.
# Vero cells = assay: Cytotoxicity assay (resazurin, 72 h); format: cell-based; settings: at 200 μg/mL
# Description: as §2
# Sequence of Mtb FtsZ (P9WN95 whole entry, looked up): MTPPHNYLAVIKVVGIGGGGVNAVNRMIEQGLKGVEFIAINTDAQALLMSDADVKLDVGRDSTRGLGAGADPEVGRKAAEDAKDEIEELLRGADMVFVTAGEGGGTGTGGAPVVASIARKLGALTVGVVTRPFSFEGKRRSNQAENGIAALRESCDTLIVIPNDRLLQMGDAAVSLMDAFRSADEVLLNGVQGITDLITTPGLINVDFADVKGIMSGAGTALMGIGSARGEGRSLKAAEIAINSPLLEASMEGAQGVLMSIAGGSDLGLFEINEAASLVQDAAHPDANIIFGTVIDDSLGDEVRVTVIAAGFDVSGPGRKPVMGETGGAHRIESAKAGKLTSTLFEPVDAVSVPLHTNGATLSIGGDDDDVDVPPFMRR
structure (smiles),measurement,setting,value
CN(C)c1cc2nc(C3CCCCC3)[nH]c2cc1NC(=O)c1ccc(OC(F)(F)F)cc1 [SB-P17G-A20],MIC,M. tuberculosis NHN382,0.16 µg/mL
same,plasma stability (4 hours) in mice,[1],75.6%
same,Liver Microsome Lability Mouse,[2],45%
same,metabolic stability (liver microsomes) in mice,[2]; percent remaining,55%
same,MIC,M. tuberculosis W210,0.16 µg/mL
same,Curve,[3],Sigmoid
same,MIC,[3],.31
same,MIC,M. tuberculosis TN587,0.16 µg/mL
same,Liver Microsome Lability Human,[4],39%
same,metabolic stability (liver microsomes) in humans,[4]; percent remaining,61%
same,Efficacy Lung,M. tuberculosis,Yes
same,Efficacy Spleen,M. tuberculosis,Yes
same,effect on FtsZ polymerization and aggregation (TEM),Mtb FtsZ,"fewer, shorter and thinner FtsZ polymers"
same,MIC against different clinical strains,[5],0.16 µg/mL
same,MIC,M. tuberculosis H37Rv [6],0.16 μg/m
same,MIC,M. tuberculosis H37Rv [6]; H37Rv,0.16 µg/mL
same,concentration that steadily reduced bacterial viability,M. tuberculosis H37Rv [7]; CFU plating,0.08 µg/mL
same,lowest concentration at which bacterial growth was reduced,M. tuberculosis H37Rv [7]; in some cases,0.125 ×MIC
same,MIC,M. tuberculosis NHN20,0.16 µg/mL
CN(C)c1cc2[nH]c(C3CCCCC3)nc2cc1NC(=O)c1ccc(OC(F)(F)F)cc1F [SB-P17G-A38],MIC,M. tuberculosis NHN382; Mycobacterium tuberculosis,0.31 µg/mL
same,Liver Microsome Lability Mouse,[2],4%
same,MIC,M. tuberculosis W210; Mycobacterium tuberculosis,0.47 ± 0.22 µg/mL
same,Curve,[3],Sigmoid
same,MIC,[3],.156
same,reduction of bacterial load in the lungs,M. tuberculosis Erdman; 50 mg/kg b.i.d. via either IP or PO,6.1-6.3 Log10 CFU
same,Δ Lungs (difference between means of Test and Control Groups),M. tuberculosis Erdman; IP,−6.30*** Log10 CFU
same,Δ Spleen (difference between means of Test and Control Groups),M. tuberculosis Erdman; IP,−4.96*** Log10 CFU
same,Log10CFU Lungs,M. tuberculosis Erdman; IP,0.39 ± 0.63 Log10 CFU
same,Log10CFU Spleen,M. tuberculosis Erdman; IP,0 ± 0 Log10 CFU
same,Δ Lungs (difference between means of Test and Control Groups),M. tuberculosis Erdman; PO,−6.10*** Log10 CFU
same,Δ Spleen (difference between means of Test and Control Groups),M. tuberculosis Erdman; PO,−3.89*** Log10 CFU
same,Log10CFU Lungs,M. tuberculosis Erdman; PO,0.22 ± 0.34 Log10 CFU
same,Log10CFU Spleen,M. tuberculosis Erdman; PO,0 ± 0 Log10 CFU
same,reduction of bacterial load in the lungs,"M. tuberculosis Erdman; delivered IP, 50 mg/kg b.i.d.",6.3 Log10 CFU
same,reduction of bacterial load in the lungs,"M. tuberculosis Erdman; delivered PO, 50 mg/kg b.i.d.",6.1 Log10 CFU
same,MIC,M. tuberculosis TN587; Mycobacterium tuberculosis,0.31 µg/mL
same,Liver Microsome Lability Human,[4],13%
same,Efficacy Lung,M. tuberculosis,Yes
same,Efficacy Spleen,M. tuberculosis,Yes
same,MIC,"[5]; Mycobacterium tuberculosis, read-out: minimal inhibitory concentrations",0.16 to 0.47 µg/mL
same,MIC,M. tuberculosis H37Rv [6]; H37Rv,0.31 ± 0.22 µg/mL
same,MIC,"M. tuberculosis H37Rv [6]; Mycobacterium tuberculosis, H37RV",0.31 ± 0.22 µg/mL
same,reduction in number of viable bacteria,M. tuberculosis H37Rv [7]; day 2,2.8 Log10 CFU
same,reduction in number of viable bacteria,M. tuberculosis H37Rv [7]; day 6,2.9 Log10 CFU
same,reduction in bacterial viability,M. tuberculosis H37Rv [7]; 3-6×MIC,3.6-4.4 Log10 CFU
same,MIC,M. tuberculosis NHN20; Mycobacterium tuberculosis,0.24 ± 0.11 µg/mL
same,Plasma Stability (% hydrolysis) Mouse (4 h),[8],−11.5%
same,IC50 at 72 h,[9],> 200 µg/mL
same,cytotoxicity in Vero cells,Vero cells,not cytotoxic; also recorded: non-toxic
